Reference: paper PMC12775434, “Ultra-large virtual screening unveils potent agonists of the neuromodulatory orphan receptor GPR139” (Nature Communications, 2025)
Several values for one entry are separate records, joined by “and”; a condition that tells them apart may be missing. Identical values can stand only once. Values belong to the compound of their own block, whether it stands above or below them.

Target: T1, GPR139 (Homo sapiens, UniProt Q6DWJ6)
T1 sequence (Q6DWJ6 1-353): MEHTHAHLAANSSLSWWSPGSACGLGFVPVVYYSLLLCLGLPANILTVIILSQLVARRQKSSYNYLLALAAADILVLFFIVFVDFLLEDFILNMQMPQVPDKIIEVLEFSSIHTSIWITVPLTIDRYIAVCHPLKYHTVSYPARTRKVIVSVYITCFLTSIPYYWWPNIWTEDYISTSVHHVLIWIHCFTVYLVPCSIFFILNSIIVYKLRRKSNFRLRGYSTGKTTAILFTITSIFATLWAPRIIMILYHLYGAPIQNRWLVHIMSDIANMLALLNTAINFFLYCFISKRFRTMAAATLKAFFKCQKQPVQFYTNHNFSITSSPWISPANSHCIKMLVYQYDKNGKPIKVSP
Experiment: Ca2+ mobilization assay, HEK293A cells transiently expressing GPR139
Type: cell-based
Settings: for Emax: HEK293-A, normalized to JNJ-63533054 (JNJ(S)); for Emax / EC50: HEK293A transient; for EC50: Supplementary Table 6, read-out: pEC50 Ca2+ (converted); for Ca2+ signal (% of JNJ-63533054): replicate experiments
Description: Primary screening and pharmacological characterization of compounds were performed using a CHO-K1 cell line that stably expresses human GPR139 (GPR139-CHOk1). The GPR139-CHOk1 cell line was kindly provided by H. Lundbeck A/S, Denmark[24]. GPR139-CHOk1 cells were grown in Ham’s F-12 Kaighn’s Modification Medium (ThermoFisher #21127030) supplemented with 10% dialyzed fetal bovine serum (US origin, ThermoFisher #26400044), 100 units/mL Penicillin-Streptomycin (ThermoFisher #15140122), and 1 mg/mL Geneticin (ThermoFisher #11811031). […] M1R-CHOk1 cells were purchased from The Missouri S&T cDNA Resource Center (#CEM100TN00). M1R-CHOk1 cells were grown in Ham’s F12 Medium (ThermoFisher #21765029) supplemented with 10% fetal bovine serum (Brazilian origin, ThermoFisher #10270106), 100 units/mL Penicillin-Streptomycin, and 0.25 mg/mL Geneticin. HEK293A cells transiently transfected with GPR139 were used for additional pharmacological assessment of signaling pathways activated by GPR139. HEK239A cells were generously provided by Dr. Asuka Inoue, Tohoku University, Japan. HEK293A cells were grown in Dulbecco’s Modified Eagle Medium (ThermoFisher #31966047) supplemented with 10% dialyzed fetal bovine serum and 100 units/mL Penicillin-Streptomycin. Cell lines were maintained at 37 °C in humidified incubator equilibrated with 5% CO2.
30,000 GPR139- or M1R-CHOk1 cells/well were seeded in black clear bottom tissue culture treated 96-well plates (Greiner #655090) and grown for 20–24 h. Cells were washed with HEPES buffer (Hank’s Balanced Salt Solution (HBBS) supplemented with 20 mM HEPES, 1 mM MgCl2, and 1 mM CaCl2; pH 7.4). Cells were loaded with 50 µL of 2 µM Fluo-4 AM dye (ThermoFisher #F14202) in HEPES buffer supplemented with 2.5 mM probenecid and 0.01% Pluronic F-68 (ThermoFisher #24040032) for 1 h at 37 °C. Cells were washed with HEPES buffer. 50 µL HEPES buffer supplemented with 2.5 mM probenecid was added, and the cells were incubated for 10 min at 37 °C before measurement. 50 µL test compounds diluted in HEPES buffer from DMSO stocks (final DMSO concentration of maximally 0.3%) were added automatically after baseline measurements. The intracellular calcium mobilization was measured on a FlexStation 3 Multimode Microplate Reader (Molecular Devices) at 37 °C with filters for excitation of 485 nm and emission of 525 nm.
HEK293A cells were reverse-transfected with human GPR139 for Ca^2+ mobilization experiments with transiently expressed GPR139. The construct has been generated and described previously by Nøhr et al.. DNA and Lipofectamine 2000 Transfection Reagent (ThermoFisher #11668019) were separately diluted in Opti-MEM I Reduced Serum Medium (ThermoFisher #31985070). 10 ng GPR139 DNA and 250 nL Lipofectamine were used for each well. The dilutions were incubated at room temperature for 5 min. Then, DNA and Lipofectamine dilutions were combined in 1:1 volumetric ratio and incubated at room temperature for 20 min to obtain the transfection solutions. 10 µL transfection solution and 20,000 cells in 100 µL growth medium were distributed in each well of black clear bottom tissue culture treated 96-well plates that were previously coated with poly-D-lysine (Sigma-Aldrich #P0899). Cells were grown for approximately 48 h. A calcium mobilization assay was performed as described.
Pharmacological data and statistical analyses were performed in GraphPad Prism v9–10 (Graphpad Software Inc., San Diego, CA), which are also specifically described in the figure and table legends. The functional assay responses were normalized to buffer (0%) and Lundbeck Cmp 1a or JNJ-63533054 (100%), for Ca^2+ and IP1 experiments in the GPR139-CHOk1 stable cell line or Ca^2+, G protein activation, and arrestin-3 recruitment experiments in the HEK293A cells transiently transfected with GPR139, respectively. Data are from at least three independent experiments, unless stated otherwise. […]

- Emax: 133 ± 14%
- EC50: 15.8 nM
Structure (SMILES): CC(NC(=O)CNC(=O)c1cccc(Cl)c1)c1ccccc1 (centres unmarked) [JNJ-63533054, reference compound]
- Ca2+ signal (% of JNJ-63533054) (log [Compound] M -5.0, listed as JNJ (S)): 174 % of JNJ-63533054 and 107 % of JNJ-63533054 and 106 % of JNJ-63533054
- Ca2+ signal (% of JNJ-63533054) (log [Compound] M -5.5, listed as JNJ (S)): 140 % of JNJ-63533054 and 98 % of JNJ-63533054 and 168 % of JNJ-63533054
- Ca2+ signal (% of JNJ-63533054) (log [Compound] M -6.0, listed as JNJ (S)): 143 % of JNJ-63533054 and 109 % of JNJ-63533054 and 138 % of JNJ-63533054
- Ca2+ signal (% of JNJ-63533054) (log [Compound] M -6.5, listed as JNJ (S)): 110 % of JNJ-63533054 and 107 % of JNJ-63533054 and 98 % of JNJ-63533054
- Ca2+ signal (% of JNJ-63533054) (log [Compound] M -7.0, listed as JNJ (S)): 101 % of JNJ-63533054 and 88 % of JNJ-63533054 and 92 % of JNJ-63533054
- Ca2+ signal (% of JNJ-63533054) (log [Compound] M -7.5, listed as JNJ (S)): 90 % of JNJ-63533054 and 115 % of JNJ-63533054 and 68 % of JNJ-63533054
- Ca2+ signal (% of JNJ-63533054) (log [Compound] M -8.0, listed as JNJ (S)): 51 % of JNJ-63533054 and 82 % of JNJ-63533054 and 41 % of JNJ-63533054
- Ca2+ signal (% of JNJ-63533054) (log [Compound] M -8.5, listed as JNJ (S)): 37 % of JNJ-63533054 and 28 % of JNJ-63533054 and 33 % of JNJ-63533054
- Ca2+ signal (% of JNJ-63533054) (log [Compound] M -9.0, listed as JNJ (S)): 13 % of JNJ-63533054 and 3.67 % of JNJ-63533054 and 12 % of JNJ-63533054

- Emax: 139 ± 24%
- EC50: 398 nM
Structure (SMILES): Cc1cscc1-c1nc(CC(=O)N[C@H](C)c2ccccc2)no1 [1.1(R)]
- Ca2+ signal (% of JNJ-63533054) (log [Compound] M -5.0): 181 % of JNJ-63533054 and 86 % of JNJ-63533054 and 180 % of JNJ-63533054
- Ca2+ signal (% of JNJ-63533054) (log [Compound] M -5.5): 143 % of JNJ-63533054 and 96 % of JNJ-63533054 and 154 % of JNJ-63533054
- Ca2+ signal (% of JNJ-63533054) (log [Compound] M -6.0): 90 % of JNJ-63533054 and 77 % of JNJ-63533054 and 95 % of JNJ-63533054
- Ca2+ signal (% of JNJ-63533054) (log [Compound] M -6.5): 70 % of JNJ-63533054 and 52 % of JNJ-63533054 and 66 % of JNJ-63533054
- Ca2+ signal (% of JNJ-63533054) (log [Compound] M -7.0): 15 % of JNJ-63533054 and 41 % of JNJ-63533054 and 28 % of JNJ-63533054
- Ca2+ signal (% of JNJ-63533054) (log [Compound] M -7.5): -6.33 % of JNJ-63533054 and 15 % of JNJ-63533054 and 7 % of JNJ-63533054
- Ca2+ signal (% of JNJ-63533054) (log [Compound] M -8.0): -9 % of JNJ-63533054 and 14 % of JNJ-63533054 and -7 % of JNJ-63533054
- Ca2+ signal (% of JNJ-63533054) (log [Compound] M -8.5): 4 % of JNJ-63533054 and 2.33 % of JNJ-63533054 and -0.667 % of JNJ-63533054
- Ca2+ signal (% of JNJ-63533054) (log [Compound] M -9.0): 8 % of JNJ-63533054 and 0.333 % of JNJ-63533054 and -15 % of JNJ-63533054

- Emax: 146 ± 16%
- EC50: 12.6 nM
Structure (SMILES): Cc1cscc1-c1nc(CC(=O)N[C@@H](C)c2ccccc2)no1 [1.1(S)]
- Ca2+ signal (% of JNJ-63533054) (log [Compound] M -5.0): 135 % of JNJ-63533054 and 150 % of JNJ-63533054
- Ca2+ signal (% of JNJ-63533054) (log [Compound] M -5.5): 108 % of JNJ-63533054 and 167 % of JNJ-63533054
- Ca2+ signal (% of JNJ-63533054) (log [Compound] M -6.0): 164 % of JNJ-63533054 and 119 % of JNJ-63533054 and 118 % of JNJ-63533054
- Ca2+ signal (% of JNJ-63533054) (log [Compound] M -6.5): 143 % of JNJ-63533054 and 116 % of JNJ-63533054 and 108 % of JNJ-63533054
- Ca2+ signal (% of JNJ-63533054) (log [Compound] M -7.0): 137 % of JNJ-63533054 and 106 % of JNJ-63533054 and 101 % of JNJ-63533054
- Ca2+ signal (% of JNJ-63533054) (log [Compound] M -7.5): 103 % of JNJ-63533054 and 92 % of JNJ-63533054 and 129 % of JNJ-63533054
- Ca2+ signal (% of JNJ-63533054) (log [Compound] M -8.0): 70 % of JNJ-63533054 and 74 % of JNJ-63533054 and 57 % of JNJ-63533054
- Ca2+ signal (% of JNJ-63533054) (log [Compound] M -8.5): 28 % of JNJ-63533054 and 33 % of JNJ-63533054 and 37 % of JNJ-63533054
- Ca2+ signal (% of JNJ-63533054) (log [Compound] M -9.0): 29 % of JNJ-63533054 and 19 % of JNJ-63533054 and 13 % of JNJ-63533054

- Emax: 101 ± 18%
- EC50: 1260 nM
Structure (SMILES): C[C@@H](NC(=O)CNC(=O)c1cccc(Cl)c1)c1ccccc1 [JNJ(R), reference compound]
- Ca2+ signal (% of JNJ-63533054) (log [Compound] M -5.0): 95 % of JNJ-63533054 and 63 % of JNJ-63533054 and 134 % of JNJ-63533054
- Ca2+ signal (% of JNJ-63533054) (log [Compound] M -5.5): 58 % of JNJ-63533054 and 81 % of JNJ-63533054 (2×)
- Ca2+ signal (% of JNJ-63533054) (log [Compound] M -6.0): 27 % of JNJ-63533054 and 52 % of JNJ-63533054 and 38 % of JNJ-63533054
- Ca2+ signal (% of JNJ-63533054) (log [Compound] M -6.5): 14 % of JNJ-63533054 and 29 % of JNJ-63533054 and 4.33 % of JNJ-63533054
- Ca2+ signal (% of JNJ-63533054) (log [Compound] M -7.0): 7 % of JNJ-63533054 and 9 % of JNJ-63533054 and -10 % of JNJ-63533054
- Ca2+ signal (% of JNJ-63533054) (log [Compound] M -7.5): 5 % of JNJ-63533054 and 9 % of JNJ-63533054 and -13 % of JNJ-63533054
- Ca2+ signal (% of JNJ-63533054) (log [Compound] M -8.0): -3.33 % of JNJ-63533054 and 8 % of JNJ-63533054 and -14 % of JNJ-63533054
- Ca2+ signal (% of JNJ-63533054) (log [Compound] M -8.5): -0.667 % of JNJ-63533054 and 11 % of JNJ-63533054 and -10 % of JNJ-63533054
- Ca2+ signal (% of JNJ-63533054) (log [Compound] M -9.0): -2.67 % of JNJ-63533054 and 15 % of JNJ-63533054 and -6 % of JNJ-63533054
